Reference: the NIST ThermoML archive (doi:10.1016/j.fluid.2014.09.020)

Assay: mn = molality of the nth substance listed, in mol/kg
Conditions: 101 kPa, Liquid; for viscosity: Capillary tube (Ostwald / Ubbelohde) method; for electrical conductivity: Direct current cell with electrodes; for mass density: Vibrating tube method

CC[N+]1(C)CCCCC1.[Br-] [N-ethyl-N-methylpiperidinium bromide] + O
Conditions | electrical conductivity [S/m] | mass density [kg/m3] | viscosity [mPa·s]
293.15 K, m1 = 0.2501 | 1.67 | 1009.34 | 1.412
293.15 K, m1 = 0.5 | 2.69 | 1019.49 | 1.432
293.15 K, m1 = 0.75 | 3.46 | 1029.24 | 1.492
293.15 K, m1 = 0.9992 | 4.01 | 1038.65 | 1.587
293.15 K, m1 = 1.25 | 4.41 | 1047.4 | 1.707
293.15 K, m1 = 1.5 | 4.68 | 1055.5 | 1.849
293.15 K, m1 = 1.75 | 4.84 | 1063.82 | 2.021
293.15 K, m1 = 1.998 | 4.94 | 1071.67 | 2.208
293.15 K, m1 = 2.2 | 5.03 | 1077.12 | 2.361
293.15 K, m1 = 2.4 | 5.12 | 1082.45 | 2.521
298.15 K, m1 = 0.2501 | 1.94 | 1007.59 | 1.254
298.15 K, m1 = 0.5 | 2.92 | 1017.73 | 1.274
298.15 K, m1 = 0.75 | 3.72 | 1027.52 | 1.325
298.15 K, m1 = 0.9992 | 4.36 | 1036.99 | 1.401
298.15 K, m1 = 1.25 | 4.82 | 1045.62 | 1.516
298.15 K, m1 = 1.5 | 5.14 | 1053.61 | 1.655
298.15 K, m1 = 1.75 | 5.42 | 1061.89 | 1.787
298.15 K, m1 = 1.998 | 5.61 | 1069.59 | 1.932
298.15 K, m1 = 2.2 | 5.68 | 1074.97 | 2.069
298.15 K, m1 = 2.4 | 5.73 | 1080.2 | 2.2
303.15 K, m1 = 0.2501 | 2.02 | 1005.68 | 1.038
303.15 K, m1 = 0.5 | 3.08 | 1015.67 | 1.091
303.15 K, m1 = 0.75 | 3.95 | 1025.8 | 1.161
303.15 K, m1 = 0.9992 | 4.65 | 1034.64 | 1.248
303.15 K, m1 = 1.25 | 5.15 | 1043.44 | 1.349
303.15 K, m1 = 1.5 | 5.5 | 1051.59 | 1.46
303.15 K, m1 = 1.75 | 5.81 | 1059.87 | 1.583
303.15 K, m1 = 1.998 | 6.02 | 1067.36 | 1.712
303.15 K, m1 = 2.2 | 6.09 | 1072.73 | 1.82
303.15 K, m1 = 2.4 | 6.15 | 1077.82 | 1.931
308.15 K, m1 = 0.2501 | 2.24 | 1003.67 | 0.8791
308.15 K, m1 = 0.5 | 3.29 | 1013.78 | 0.9294
308.15 K, m1 = 0.75 | 4.2 | 1023.78 | 0.9953
308.15 K, m1 = 0.9992 | 4.98 | 1032.63 | 1.074
308.15 K, m1 = 1.25 | 5.54 | 1041.4 | 1.163
308.15 K, m1 = 1.5 | 5.93 | 1049.3 | 1.26
308.15 K, m1 = 1.75 | 6.34 | 1057.7 | 1.363
308.15 K, m1 = 1.998 | 6.61 | 1064.48 | 1.469
308.15 K, m1 = 2.2 | 6.66 | 1070.15 | 1.554
308.15 K, m1 = 2.4 | 6.69 | 1075.12 | 1.639

CCCC[N+]1(C)CCCCC1.[Br-] [N-butyl-N-methylpiperidinium bromide] + O
Conditions | electrical conductivity [S/m] | mass density [kg/m3] | viscosity [mPa·s]
293.15 K, m1 = 0.25 | 1.58 | 1008.15 | 1.271
293.15 K, m1 = 0.5006 | 2.29 | 1017.18 | 1.451
293.15 K, m1 = 0.7499 | 2.83 | 1025.78 | 1.631
293.15 K, m1 = 0.9999 | 3.23 | 1034.01 | 1.819
293.15 K, m1 = 1.25 | 3.5 | 1041.71 | 2.004
293.15 K, m1 = 1.5 | 3.66 | 1049.03 | 2.199
293.15 K, m1 = 1.75 | 3.77 | 1055.94 | 2.422
293.15 K, m1 = 2 | 3.83 | 1062.38 | 2.663
293.15 K, m1 = 2.2 | 3.85 | 1067.29 | 2.863
293.15 K, m1 = 2.4 | 3.87 | 1071.91 | 3.084
298.15 K, m1 = 0.25 | 1.64 | 1006.6 | 1.114
298.15 K, m1 = 0.5006 | 2.44 | 1015.55 | 1.283
298.15 K, m1 = 0.7499 | 3.04 | 1024.1 | 1.442
298.15 K, m1 = 0.9999 | 3.49 | 1032.29 | 1.598
298.15 K, m1 = 1.25 | 3.78 | 1039.86 | 1.75
298.15 K, m1 = 1.5 | 3.96 | 1047.06 | 1.907
298.15 K, m1 = 1.75 | 4.08 | 1053.87 | 2.087
298.15 K, m1 = 2 | 4.15 | 1060.17 | 2.287
298.15 K, m1 = 2.2 | 4.17 | 1064.99 | 2.457
298.15 K, m1 = 2.4 | 4.2 | 1069.52 | 2.649
303.15 K, m1 = 0.25 | 1.77 | 1004.71 | 0.9885
303.15 K, m1 = 0.5006 | 2.61 | 1013.61 | 1.133
303.15 K, m1 = 0.7499 | 3.26 | 1022.18 | 1.266
303.15 K, m1 = 0.9999 | 3.75 | 1030.35 | 1.394
303.15 K, m1 = 1.25 | 4.09 | 1037.65 | 1.528
303.15 K, m1 = 1.5 | 4.32 | 1044.94 | 1.67
303.15 K, m1 = 1.75 | 4.48 | 1051.69 | 1.812
303.15 K, m1 = 2 | 4.57 | 1057.79 | 1.972
303.15 K, m1 = 2.2 | 4.6 | 1062.59 | 2.119
303.15 K, m1 = 2.4 | 4.63 | 1066.98 | 2.279
308.15 K, m1 = 0.25 | 1.86 | 1002.93 | 0.882
308.15 K, m1 = 0.5006 | 2.77 | 1011.89 | 0.98
308.15 K, m1 = 0.7499 | 3.47 | 1020.33 | 1.078
308.15 K, m1 = 0.9999 | 4.01 | 1028.69 | 1.179
308.15 K, m1 = 1.25 | 4.39 | 1035.69 | 1.282
308.15 K, m1 = 1.5 | 4.64 | 1043.08 | 1.392
308.15 K, m1 = 1.75 | 4.82 | 1049.51 | 1.511
308.15 K, m1 = 2 | 4.92 | 1055.41 | 1.639
308.15 K, m1 = 2.2 | 4.96 | 1060.23 | 1.749
308.15 K, m1 = 2.4 | 4.99 | 1064.28 | 1.868

CCC[N+]1(C)CCCCC1.[Br-] [1-methyl-1-propylpiperidinium bromide] + O
Conditions | electrical conductivity [S/m] | mass density [kg/m3] | viscosity [mPa·s]
293.15 K, m1 = 0.2501 | 1.61 | 1008.72 | 1.291
293.15 K, m1 = 0.5 | 2.44 | 1018.24 | 1.402
293.15 K, m1 = 0.75 | 3.08 | 1027.42 | 1.529
293.15 K, m1 = 0.9998 | 3.57 | 1036.22 | 1.669
293.15 K, m1 = 1.25 | 3.91 | 1044.44 | 1.84
293.15 K, m1 = 1.5 | 4.14 | 1052.29 | 2.03
293.15 K, m1 = 1.75 | 4.29 | 1059.77 | 2.216
293.15 K, m1 = 2.001 | 4.38 | 1066.77 | 2.419
293.15 K, m1 = 2.2 | 4.41 | 1072.13 | 2.604
293.15 K, m1 = 2.4 | 4.44 | 1077.21 | 2.792
298.15 K, m1 = 0.2501 | 1.75 | 1007.5 | 1.178
298.15 K, m1 = 0.5 | 2.64 | 1016.88 | 1.259
298.15 K, m1 = 0.75 | 3.33 | 1025.92 | 1.356
298.15 K, m1 = 0.9998 | 3.86 | 1034.59 | 1.466
298.15 K, m1 = 1.25 | 4.23 | 1042.69 | 1.607
298.15 K, m1 = 1.5 | 4.48 | 1050.42 | 1.769
298.15 K, m1 = 1.75 | 4.65 | 1057.79 | 1.922
298.15 K, m1 = 2.001 | 4.76 | 1064.7 | 2.091
298.15 K, m1 = 2.2 | 4.81 | 1069.98 | 2.249
298.15 K, m1 = 2.4 | 4.85 | 1074.98 | 2.408
303.15 K, m1 = 0.2501 | 1.9 | 1006.09 | 1.044
303.15 K, m1 = 0.5 | 2.83 | 1015.33 | 1.116
303.15 K, m1 = 0.75 | 3.57 | 1024.23 | 1.203
303.15 K, m1 = 0.9998 | 4.14 | 1032.75 | 1.302
303.15 K, m1 = 1.25 | 4.54 | 1040.75 | 1.424
303.15 K, m1 = 1.5 | 4.82 | 1048.38 | 1.559
303.15 K, m1 = 1.75 | 5.04 | 1055.64 | 1.688
303.15 K, m1 = 2.001 | 5.18 | 1062.46 | 1.827
303.15 K, m1 = 2.2 | 5.24 | 1067.67 | 1.951
303.15 K, m1 = 2.4 | 5.3 | 1072.61 | 2.073
308.15 K, m1 = 0.2501 | 2.04 | 1004.66 | 0.9225
308.15 K, m1 = 0.5 | 3.03 | 1013.72 | 0.9723
308.15 K, m1 = 0.75 | 3.82 | 1022.62 | 1.037
308.15 K, m1 = 0.9998 | 4.43 | 1030.82 | 1.113
308.15 K, m1 = 1.25 | 4.86 | 1038.67 | 1.206
308.15 K, m1 = 1.5 | 5.16 | 1046.1 | 1.311
308.15 K, m1 = 1.75 | 5.4 | 1053.72 | 1.417
308.15 K, m1 = 2.001 | 5.57 | 1060.11 | 1.53
308.15 K, m1 = 2.2 | 5.65 | 1065.32 | 1.629
308.15 K, m1 = 2.4 | 5.72 | 1070.23 | 1.728
